# Measurements published in PubChem BioAssay AID463229 (Broad Institute, 2010).
# Active and inactive are the calls of the source.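 Rule for the calls: active = compounds raising the signal whose fitted half-maximal concentration is at or below their top tested dose (cut at about 25 µM in these data); inconclusive = flat fit at 30 to 70% activity, or a poor fit; inactive = the rest.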
# Tested on: INS-1E rat beta cells, no cytokines, CellTiter-Glo ATP, 48 h
# Test: cytokine-free beta-cell viability effect – INS-1E rat cells, ATP luminescence, cherry pick, counter-screen for beta-cell apoptosis protection project, dose response (AID 463229)
row,SMILES,AC50
1,C#CCOCCOCCOCCNc1nc(N2CCN(C(=O)CCCCCCCCCCNC(=O)[C@H]([C@@H](C)CC)n3cc(CCCCN=C(N)N)nn3)CC2)nc(N2CCN(C(=O)CCCCCCCCCCNC(=O)[C@H](CCCCN)n3cc(C)nn3)CC2)n1,6.28 µM
2,O=C(OCn1ncc(Cl)c(Cl)c1=O)c1ccc(F)cc1,7.02 µM
3,CCN1/C(=C/C=C/c2sc3ccccc3[n+]2CC)Sc2ccccc21,< 0.195 µM
4,CCN(CC)c1ccc(/C=N/NC(=O)CCC(=O)NCc2ccccc2)c(O)c1,7.22 µM
5,C/C(=N\Nc1nc2ccccc2[nH]1)c1ccccn1,0.56 µM
6,COc1ccc2nc(N=Nc3ccc(O)c4ccccc34)sc2c1,7.16 µM
7,O=[N+]([O-])/C=C/c1ccc2c(ccn2Cc2ccccc2)c1,7.72 µM
8,CCC(=O)N1c2ccc(S(=O)(=O)N3CCN(c4ccc([N+](=O)[O-])cc4)CC3)cc2CC1C (stereo not given),6.37 µM
9,COc1cc(NC(=O)c2cc3ccccc3cc2O)c(OC)cc1Cl,4.68 µM
10,CC(=O)Oc1c(I)cc(I)cc1C(=O)Nc1ccc(Cl)cc1,14.8 µM
11,CN(C)c1cc[n+](CC(=O)Nc2ccc(Oc3ccccc3)cc2)cc1,2.36 µM
12,CCOC(=O)c1c(C)[nH]c(C)c1C(=O)CSc1nc2ccccc2c(=O)n1-c1ccc(CC)cc1,5.33 µM
13,Cc1ccc(C)c(S(=O)(=O)N2CCN(c3ncnc4sccc34)CC2)c1,4.53 µM
14,CCCCCn1c(=O)c(C(=O)NC(C)c2ccccc2)c(O)c2ccccc21 (stereo not given),4.19 µM
15,CN1/C(=C\C=C2/SC(=S)NC2=O)C(C)(C)c2ccccc21,3.38 µM
16,O=C1C(Nc2ccccc2)=C/C(=N/S(=O)(=O)c2cccs2)c2ccccc21,2.07 µM
17,COc1ccccc1C(=O)Nc1nc2ccccc2[nH]1,1.22 µM
18,Cc1cccc(Nc2nc(NCc3ccco3)c3ccccc3n2)c1,8.03 µM
19,COc1ccc(-n2c(-c3ccc(Cl)cc3)c[n+]3c2CCc2ccccc2-3)cc1,1.78 µM
20,O=C(c1ccc([N+](=O)[O-])s1)N1CCN(c2cccc(Cl)c2)CC1,19.3 µM
21,COc1ccc(OC)c(NC(=O)c2nc(S(=O)(=O)Cc3ccccc3)ncc2Cl)c1,7.87 µM
22,CCC1CCCCN1S(=O)(=O)c1ccc(NC(=O)c2nc(S(C)(=O)=O)ncc2Cl)cc1 (stereo not given),8.01 µM
23,Cc1ccccc1NC1=C/C(=N\S(=O)(=O)c2cccs2)c2ccccc2C1=O,1.79 µM
24,Oc1ccccc1/C=N/Nc1nccnc1Cl,3.97 µM
25,CC1(C)N=C(N)N=C(N)N1c1ccc(OCCCOc2ccccc2)c(Cl)c1,0.913 µM
26,O=C(COc1ccc(Cl)cc1)Nc1ccc(C(=O)NCc2cccnc2)cc1,0.236 µM
27,COc1cc2nc(N3CCN(c4cc(C)ccc4C)CC3)nc(N)c2cc1OC,6.91 µM

row,SMILES,AC50
1,COc1ccc(Cn2cc3c(-c4ccc(F)cc4)nnc-3c3cc(OC)c(OC)cc32)cc1,9.02 µM
2,Cc1ccccc1C(=O)Nc1cccc(C(=O)N/N=C/c2cc(Cl)cc([N+](=O)[O-])c2O)c1,13.3 µM
3,N=c1c2c(n(Cc3cccc(Cl)c3)c3c1CCC3)CCCC2,7.28 µM
4,Cc1ccc2nc(NNC(=O)c3ccc(S(=O)(=O)N4CCc5ccccc5C4)cc3)sc2c1,4.18 µM
5,CC1CCN(c2ccc(NC(=O)c3ccc([N+](=O)[O-])o3)cc2)CC1,10.1 µM
6,CCN(CC)c1ccc(/C=N/N(c2ccccc2)c2ccccc2)c(O)c1,4.58 µM
7,Cc1ccc(C(=O)Nc2nc(-c3ccccn3)cs2)s1,6.66 µM
8,NC(=O)c1ccc(N2CCN(S(=O)(=O)c3cccs3)CC2)c([N+](=O)[O-])c1,6.36 µM
9,CCOc1ccc(CN2CCN(Cc3c[nH]c4ccccc34)CC2)cc1,7.75 µM
10,CCCCCN=Cc1c(C)[nH]n(-c2nc3ccccc3s2)c1=O,3.2 µM
11,c1ccc2c(CNC3CCCCC3)c[nH]c2c1,6.79 µM
12,CC(=O)Nc1ccc(S(=O)(=O)Nc2ccc(N3CCCCC3)cc2)cc1,4.33 µM
13,CCCC(=O)NC(c1ccc(N(C)C)cc1)c1ccc2cccnc2c1O (stereo not given),2.08 µM
14,C#CCOCCOCCOCCNc1nc(N2CCN(C(=O)CCCCCCCCCCNC(=O)[C@H]([C@@H](C)CC)n3cc(CCCCCN)nn3)CC2)nc(N2CCN(C(=O)CCCCCCCCCCNC(=O)[C@@H]([C@H](C)O)n3cc(C)nn3)CC2)n1,6.55 µM
15,COc1ccc(/C=C/C(=O)c2ccc([N+](=O)[O-])o2)cc1,12.5 µM
16,CC1=CC(=O)C(C(C)C)=C/C1=N/OS(=O)(=O)c1ccccc1,1.42 µM
17,CC(C)(C)n1ncc2c(=O)n(Cc3cccc(Cn4cnc5c(cnn5C(C)(C)C)c4=O)c3F)cnc21,4.32 µM
18,CCOC(=O)c1c(NC(=O)c2cc(-c3ccc(Cl)s3)nc3ccccc23)sc(C(N)=O)c1C,11.5 µM
19,CCOc1ccc(S(=O)(=O)N2CCCCC2)cc1NC(=O)CN1CCCC1c1cccs1 (stereo not given),5.24 µM
20,CCCCC(=O)NC(c1cccs1)c1cc(Cl)c2cccnc2c1O (stereo not given),5.89 µM
21,C=C1C(=O)C=C2CN(C(=O)c3ccccc3)[C@@](Cc3ccc(F)cc3)(C(=O)OC)[C@@H]12,2.56 µM
22,Cc1cc(C)n(-c2nc(NCCO)c3c4c(sc3n2)CCCC4)n1,> 26 µM (inactive)
23,CC(=O)Nc1sc2c(c1-c1nc3ccccc3s1)CCN(C(C)C)C2,5.11 µM
24,OCCNc1nc(Nc2ccc(Cl)c(Cl)c2)nc2ccccc12,14.3 µM
25,Cc1ccc(NC(=O)/C=C/c2ccc([N+](=O)[O-])s2)c(C)c1,13.1 µM
26,COc1ccc(N(C(=O)CCl)C(C(=O)NCCc2ccccc2)c2cccs2)cc1Cl (stereo not given),7.56 µM
27,CCc1cc(C(=O)NC2CCCc3c2cnn3-c2cccc(C)c2C)n(C)n1 (stereo not given),< 0.195 µM

row,SMILES,AC50
1,COc1ccc(-c2c([C@H]3[C@H]4C=CC[C@@H](C)[C@@H]4C(=O)N3Cc3ccccc3)ccc3ccccc23)cc1,7.67 µM
2,O=C(NCC(c1ccco1)N1CCCC1)c1ccc(Cl)c(S(=O)(=O)N2CCc3ccccc32)c1 (stereo not given),7.47 µM
3,O=C1/C(=C\c2cccnc2)CN(Cc2ccccc2)C/C1=C\c1cccnc1,7.58 µM
4,COc1cc(C)c(C(=O)CC(=O)c2c(C)cc(OC)cc2C)c(C)c1,13.7 µM
5,O=C(Nc1ccc(C(F)(F)F)cc1)C1CCN(S(=O)(=O)c2ccc(N3CCCC3=O)cc2)CC1,4.37 µM
6,CCN(CC)Cc1c(O)ccc2c1O/C(=C\C=C\c1ccccc1)C2=O,14.4 µM
7,N#CC(C#N)=C(Nc1ccc(F)cc1)SCc1cccc(Br)c1,3.02 µM
8,CC1=C/C(=N\OS(=O)(=O)c2ccccc2)C(C)=CC1=O,1.52 µM
9,O=C(NCc1cccnc1)c1ccc([N+](=O)[O-])cc1,5.86 µM
10,COc1ccc2nc(C)cc(N/N=C/c3ccc(F)cc3)c2c1,7.11 µM
11,O=C(N=Nc1c(O)n(Cc2ccccc2)c2ccccc12)c1cc2ccccc2cc1O,8.07 µM
12,CN(C1=C(NC(=O)c2ccccc2)C(=O)c2ccccc2C1=O)C1CCS(=O)(=O)C1 (stereo not given),4.84 µM
13,C[n+]1c2n(c3ccccc31)N=C(c1ccc(-c3ccccc3)cc1)CS2,1.74 µM
14,O=C(Nc1cccc(Cl)c1)Nc1nnc(CSCCOc2ccc(Cl)cc2)s1,5.39 µM
15,Cc1c(C)c2cccnc2c2ncccc12,2.49 µM
16,Cc1ccc(Nc2c3c(nc4ccccc24)CCC3)cc1,16 µM
17,C=C[C@H](CC(C)C)N(Cc1ccccc1)S(=O)(=O)N(Cc1ccccc1)[C@@H](C=C)CC(C)C,5.72 µM
18,CN(C)c1cc[n+](CC(=O)c2ccc(-c3ccccc3)cc2)cc1,1.22 µM
19,CCCC(C)C(=O)Nc1nc(C)c(-c2csc(Nc3ccc(Cl)cc3)n2)s1 (stereo not given),3.71 µM
20,Cc1cccc(N2C(=S)N=C(Nc3c(C)cccc3C)C23CCOC(C)(C)C3)c1 (stereo not given),3.79 µM
21,Fc1ccc(CN(Cc2ccccc2)C(c2cccs2)c2nnnn2C2CCCCC2)cc1 (stereo not given),5.93 µM
22,Cc1ccc(-n2c(Cl)c(Cl)nc(Cl)c2=O)cc1,6.66 µM
23,CC(=O)c1c(C)[nH]c(C(=O)OCCCCN2C(=O)c3ccccc3C2=O)c1C,6.54 µM
24,CCOC(=O)c1c(C)oc2c1C(=O)c1ccccc1C2=O,12.3 µM
25,Cc1cc(/C=N/n2cnnc2)c(C)n1-c1ccc(OCc2ccc(Cl)cc2Cl)cc1,1.71 µM
26,CCCc1cc(=O)n2[nH]cc(-c3ccc(Cl)cc3)c2n1,11.9 µM
27,CCCN(CCC)c1nc(-c2ccccn2)nc2ccccc12,4.34 µM

row,SMILES,AC50
1,CC(C)(C)c1cc(CCC(=O)NNC(=S)NC(=O)c2ccccc2)cc(C(C)(C)C)c1O,7.17 µM
2,CC(=O)NC(c1ccco1)c1cc(F)c2cccnc2c1O (stereo not given),10.6 µM
3,N#Cc1ccc(C(=O)Nc2nc(-c3cccs3)c(C(=O)C(F)(F)F)s2)cc1,4.37 µM
4,CCCCCCn1ccc(=N)cc1,3.12 µM
5,C=CC[n+]1c(/C=C2\C=Cc3cc(C)ccc3N2CC)ccc2ccccc21,< 0.195 µM
6,O=C(Nc1nc(-c2ccccn2)cs1)c1ccccc1-n1cnnn1,5.32 µM
7,O=C(N/N=C/c1cc(Br)ccc1OC(=O)c1ccc(Br)cc1)c1ccncc1,6.01 µM
8,CCCCC(=O)NC(c1ccc(Cl)cc1Cl)c1ccc2cccnc2c1O (stereo not given),2.22 µM
9,CC[C@@H](C(=O)[C@@H](C)[C@@H](O)[C@H](C)CCc1ccc(C)c(O)c1C(=O)O)[C@H]1O[C@](CC)([C@H]2CC[C@](O)(CC)[C@H](C)O2)C[C@@H]1C,2.49 µM
10,COc1cccc(/C=N/Nc2nc3ccccc3n3cnnc23)c1O,7.23 µM
11,Cc1nc2ccccc2nc1N/N=C/c1ccc(O)cc1O,3.6 µM
12,COc1ccc(-c2c[n+]3c4n2CCCCC4=C(c2ccc(Br)cc2)C3)cc1,3.14 µM
13,CCN(c1ccccc1)S(=O)(=O)c1ccc(C(=O)NC2CCN(Cc3ccccc3)CC2)cc1,6.36 µM
14,Cc1c(N/N=C(\C#N)C(=O)c2ccc(Cl)cc2)c(=O)n(-c2ccccc2)n1C,5.35 µM
15,CC(=O)OC1COC(OC2C(O)C(C)OC(OC3C(OC4CCC5(C)C(CCC6(C)C5CC=C5C7CC(C)(C)CCC7(C(=O)O)CCC56C)C4(C)CO)OCC(O)C3O)C2O)C(O)C1OC(C)=O (stereo not given),7.09 µM
16,O=[N+]([O-])c1ccc(S(=O)(=O)c2ccccc2)nc1,10.6 µM
17,Cc1ccc(-c2c[n+]3c(n2-c2ccccc2)CCC3)cc1,2.02 µM
18,C/C(=N/NC(=O)c1ccc(C(C)(C)C)cc1)c1ccccn1,2.1 µM
19,O=c1nccc(N/N=C/c2ccccc2O)[nH]1,23.3 µM
20,O=C(Nc1nc2c(F)cc(F)cc2s1)c1ccccn1,6.37 µM
21,CCN(CC)CCOc1ccc2c(c1)C(=NO)c1cc(OCCN(CC)CC)ccc1-2,14.1 µM
22,O=C1/C(=C/c2ccc(N3CCOCC3)o2)SC(=Nc2ccccc2)N1CCc1c[nH]c2ccccc12,> 26 µM (inactive)
23,O=C1C=C(Nc2ccc(F)cc2)c2ccccc2C1=O,7.19 µM
24,C/C(=N\NC(=O)C(C)n1nc(C)c([N+](=O)[O-])c1C)c1ccccc1O (stereo not given),12.5 µM
